From ChEMBL document CHEMBL3272011, “Aminobenzoic acid diuretics. 9. 3,4-Disubstituted 5-acylaminobenzoic acids and related compounds” (1977) come the findings set out here.

Activity calls are given as the source filed them. The calls are words filed in the database; no cut-off is given here.

Assay [1] relates to Canis familiaris. Kind of assay: Diuretic effect in mongrel dog assessed as urinary excretion of water at 1 mg/kg, iv after 3 hrs (reference value: 0.93 +/- 0.35 ml/kg). Format: functional, Canis lupus familiaris, Urine.
Assay [2] concerns Canis familiaris. Nature of the assay: Diuretic effect in mongrel dog assessed as urinary excretion of K+ at 1 mg/kg, iv after 3 hrs (reference value: 0.16 +/- 0.01 mequiv/kg). Format: functional, Canis lupus familiaris, Urine.
Assay [3] deals with Canis familiaris. Kind of assay: Diuretic effect in mongrel dog assessed as urinary excretion of Cl- at 1 mg/kg, iv after 3 hrs (reference value: 0.08 +/- 0.02 mequiv/kg). The format is functional, Canis lupus familiaris, Urine.
Assay [4] concerns Canis familiaris. Kind of assay: Diuretic effect in mongrel dog assessed as urinary excretion of Na+ at 1 mg/kg, iv after 3 hrs (reference value: 0.10 +/- 0.02 mequiv/kg). The format is functional, Canis lupus familiaris, Urine.
In assay [5] the test system is Canis familiaris. Nature of the assay: Diuretic effect in mongrel dog assessed as urinary excretion of water at 1 mg/kg, po after 3 hrs (reference value: 0.93 +/- 0.35 ml/kg). Format: functional.
In assay [6] the test system is Canis familiaris. Nature of the assay: Diuretic effect in mongrel dog assessed as urinary excretion of Na+ at 0.1 mg/kg, iv after 3 hrs (reference value: 0.10 +/- 0.02 mequiv/kg). Format: functional, Canis lupus familiaris, Urine.
In assay [7] the test system is Canis familiaris. Kind of assay: Diuretic effect in mongrel dog assessed as urinary excretion of water at 0.1 mg/kg, iv after 3 hrs (reference value: 0.93 +/- 0.35 ml/kg). The format is functional, Canis lupus familiaris, Urine.
In assay [8] the test system is Canis familiaris. Nature of the assay: Diuretic effect in mongrel dog assessed as urinary excretion of Na+ at 1 mg/kg, po after 3 hrs (reference value: 0.10 +/- 0.02 mequiv/kg). Format: functional, Canis lupus familiaris, Urine.
The subject of assay [9] is Canis familiaris. Nature of the assay: Diuretic effect in mongrel dog assessed as urinary excretion of K+ at 1 mg/kg, po after 3 hrs (reference value: 0.16 +/- 0.01 mequiv/kg). Format: functional, Canis lupus familiaris, Urine.
For assay [10], the system named is Canis familiaris. Nature of the assay: Diuretic effect in mongrel dog assessed as urinary excretion of Cl- at 1 mg/kg, po after 3 hrs (reference value: 0.08 +/- 0.02 mequiv/kg). The format is functional, Canis lupus familiaris, Urine.
In assay [11] the test system is Canis familiaris. Nature of the assay: Diuretic effect in mongrel dog assessed as urinary excretion of Cl- at 0.25 mg/kg, iv after 3 hrs (reference value: 0.08 +/- 0.02 mequiv/kg). Format: functional, Canis lupus familiaris, Urine.
Assay [12] concerns Canis familiaris. Kind of assay: Diuretic effect in mongrel dog assessed as urinary excretion of water at 0.25 mg/kg, iv after 3 hrs (reference value: 0.93 +/- 0.35 ml/kg). The format is functional, Canis lupus familiaris, Urine.
The subject of assay [13] is Canis familiaris. Kind of assay: Diuretic effect in mongrel dog assessed as urinary excretion of K+ at 0.25 mg/kg, iv after 3 hrs (reference value: 0.16 +/- 0.01 mequiv/kg). The format is functional, Canis lupus familiaris, Urine.
Assay [14] concerns Canis familiaris. Kind of assay: Diuretic effect in mongrel dog assessed as urinary excretion of Na+ at 0.25 mg/kg, iv after 3 hrs (reference value: 0.10 +/- 0.02 mequiv/kg). The format is functional, Canis lupus familiaris, Urine.

On to `CCCSc1cc(C(=O)O)cc(NC=O)c1C(=O)c1ccccc1`, for which the Activity in the assay on Canis familiaris [1] was 8 mL/kg; in the assay on Canis familiaris [2] it was 0.42 milliequivalent/kg; in the assay on Canis familiaris [3] it was 1.2 milliequivalent/kg; in the assay with Canis familiaris [4], 1 milliequivalent/kg.
`O=CNc1cc(C(=O)O)cc(SCc2ccccc2)c1-c1ccccc1`: the result in the assay with Canis familiaris [1] (Canis lupus familiaris, Urine) was inactive.
For the molecule `CN(C)CC(=O)Nc1cc(C(=O)O)cc(OCc2ccccc2)c1C(=O)c1ccccc1`, the result in the assay with Canis familiaris [5] (Canis lupus familiaris, Urine) was inactive.
Turning to `CCCCOc1cc(C(=O)O)cc(NC=O)c1C(=O)c1ccccc1`, the Activity was 17 mL/kg in the assay on Canis familiaris [1], 0.5 milliequivalent/kg with Canis familiaris [6], 6 mL/kg with Canis familiaris [7] and 2.1 milliequivalent/kg with Canis familiaris [4].
As for `CN(C=O)c1cc(C(=O)O)cc(OCc2ccccc2)c1C(=O)c1ccccc1`, the Activity entry in the assay on Canis familiaris [1] (Canis lupus familiaris, Urine) is “Active”; with Canis familiaris [2] (Canis lupus familiaris, Urine) it was “Active”; in the assay with Canis familiaris [3] (Canis lupus familiaris, Urine), “Active”; with Canis familiaris [4] (Canis lupus familiaris, Urine) it was “Active”.
For `CCN(C=O)c1cc(C(=O)O)cc(OCc2ccccc2)c1C(=O)c1ccccc1`, the Activity result was “inactive” in the assay on Canis familiaris [1] (Canis lupus familiaris, Urine); “inactive” with Canis familiaris [2] (Canis lupus familiaris, Urine); “inactive” in the assay with Canis familiaris [3] (Canis lupus familiaris, Urine); “inactive” with Canis familiaris [4] (Canis lupus familiaris, Urine).
Turning to `C=CCSc1cc(C(=O)O)cc(NC=O)c1C(=O)c1ccccc1`, the result in the assay with Canis familiaris [1] (Canis lupus familiaris, Urine) was inactive.
As to `CCC(=O)Nc1cc(C(=O)O)cc(OCc2ccccc2)c1C(=O)c1ccccc1`, the Activity worked out at 7 mL/kg with Canis familiaris [1], 0.2 milliequivalent/kg in the assay on Canis familiaris [2], 0.9 milliequivalent/kg in the assay with Canis familiaris [3] and 0.6 milliequivalent/kg with Canis familiaris [4].
In the same order, the values of `CCCOc1cc(C(=O)O)cc(NC=O)c1C(=O)c1ccccc1` are 10 mL/kg, 0.52 milliequivalent/kg, 1.2 milliequivalent/kg and 2 milliequivalent/kg.
For `CC(C)CCSc1cc(C(=O)O)cc(NC=O)c1C(=O)c1ccccc1`, the Activity was found to be 1.6 milliequivalent/kg in the assay with Canis familiaris [8], 0.39 milliequivalent/kg in the assay with Canis familiaris [9], 15 mL/kg with Canis familiaris [5] and 1.9 milliequivalent/kg with Canis familiaris [10].
For `CCCCOc1cc(C(=O)O)cc(NC(C)=O)c1C(=O)c1ccccc1`, the Activity came to 2.1 milliequivalent/kg in the assay on Canis familiaris [8], 0.53 milliequivalent/kg with Canis familiaris [9], 18 mL/kg in the assay on Canis familiaris [5] and 2.5 milliequivalent/kg in the assay with Canis familiaris [10].
On to `O=CNc1cc(C(=O)O)cc(OCc2ccccc2)c1-c1ccccc1`, for which the Activity with Canis familiaris [1] turned out to be 12 mL/kg; with Canis familiaris [2] it was 0.39 milliequivalent/kg; with Canis familiaris [3] it was 1.6 milliequivalent/kg; with Canis familiaris [4], 1.3 milliequivalent/kg.
For the molecule `O=C(O)c1cc(NC(=O)c2ccccc2)c(C(=O)c2ccccc2)c(OCc2ccccc2)c1`, the result with Canis familiaris [1] (Canis lupus familiaris, Urine) was inactive.
`O=CNc1cc(C(=O)O)cc(NCc2ccccc2)c1Oc1ccccc1`: the Activity was determined as 8 mL/kg in the assay on Canis familiaris [1]; 0.26 milliequivalent/kg in the assay on Canis familiaris [2]; 1.5 milliequivalent/kg in the assay with Canis familiaris [11]; 1.3 milliequivalent/kg with Canis familiaris [3]; 9 mL/kg in the assay with Canis familiaris [12]; 0.23 milliequivalent/kg in the assay on Canis familiaris [13]. Also, the Activity with Canis familiaris [4] turned out to be 1.3 milliequivalent/kg; in the assay with Canis familiaris [14], 1.1 milliequivalent/kg.
For `CCNc1cc(C(=O)O)cc(OCc2ccccc2)c1C(=O)c1ccccc1`, the Activity result in the assay with Canis familiaris [1] (Canis lupus familiaris, Urine) was “inactive”; in the assay with Canis familiaris [2] (Canis lupus familiaris, Urine), “inactive”; in the assay on Canis familiaris [3] (Canis lupus familiaris, Urine), “inactive”; with Canis familiaris [4] (Canis lupus familiaris, Urine), “inactive”.
In the case of `O=CNc1cc(C(=O)O)cc(NCc2ccccc2)c1-c1ccccc1`, the Activity in the assay on Canis familiaris [1] is 12 mL/kg; with Canis familiaris [2] it was 0.43 milliequivalent/kg; with Canis familiaris [3], 1.7 milliequivalent/kg; with Canis familiaris [4], 1.6 milliequivalent/kg.
`O=C(O)c1cc(NC(=O)C(F)(F)F)c(C(=O)c2ccccc2)c(OCc2ccccc2)c1`: the result in the assay on Canis familiaris [5] (Canis lupus familiaris, Urine) was inactive.
Turning to `O=CNc1cc(C(=O)O)cc(OCc2ccsc2)c1C(=O)c1ccccc1`, the Activity turned out to be 3.1 milliequivalent/kg in the assay with Canis familiaris [8]; 2.8 milliequivalent/kg in the assay with Canis familiaris [11]; 0.64 milliequivalent/kg in the assay on Canis familiaris [9]; 26 mL/kg with Canis familiaris [5]; 4.1 milliequivalent/kg in the assay with Canis familiaris [10]; 17 mL/kg with Canis familiaris [12]. Further, the Activity in the assay on Canis familiaris [13] is recorded as 0.49 milliequivalent/kg; in the assay on Canis familiaris [14], 2.2 milliequivalent/kg.
Turning to `CNC(=O)Nc1cc(C(=O)O)cc(NCc2ccccc2)c1Oc1ccccc1`, the Activity with Canis familiaris [1] came out at 8 mL/kg; with Canis familiaris [2], 0.2 milliequivalent/kg; in the assay on Canis familiaris [3] it was 1.1 milliequivalent/kg; in the assay with Canis familiaris [4], 0.7 milliequivalent/kg.
For `O=CNc1cc(C(=O)O)cc(SCc2ccccc2)c1Oc1ccccc1`, in the assay on Canis familiaris [1] (Canis lupus familiaris, Urine), the outcome was inactive.
`CNc1cc(C(=O)O)cc(OCc2ccccc2)c1C(=O)c1ccccc1`: the Activity result with Canis familiaris [1] (Canis lupus familiaris, Urine) was “inactive”; with Canis familiaris [2] (Canis lupus familiaris, Urine), “inactive”; in the assay on Canis familiaris [3] (Canis lupus familiaris, Urine), “inactive”; in the assay with Canis familiaris [4] (Canis lupus familiaris, Urine), “inactive”.
Take `CC(=O)Nc1cc(C(=O)O)cc(OCc2ccccc2)c1C(=O)c1ccccc1`: the Activity with Canis familiaris [1] came to 14 mL/kg; in the assay with Canis familiaris [2] it was 0.45 milliequivalent/kg; in the assay with Canis familiaris [3] it was 3 milliequivalent/kg; with Canis familiaris [4], 1.3 milliequivalent/kg.
In the same order, the values of `CC(=O)Nc1cc(C(=O)O)cc(OCc2ccccc2)c1-c1ccccc1` are 8 mL/kg, 0.22 milliequivalent/kg, 1.1 milliequivalent/kg and 1 milliequivalent/kg.
Regarding `O=CNc1cc(C(=O)O)cc(SCc2ccsc2)c1Oc1ccccc1`, the Activity in the assay on Canis familiaris [1] is 11 mL/kg; in the assay on Canis familiaris [2], 0.45 milliequivalent/kg; in the assay on Canis familiaris [3], 1.9 milliequivalent/kg; in the assay on Canis familiaris [4], 1.3 milliequivalent/kg.
As for `O=C(CCl)Nc1cc(C(=O)O)cc(OCc2ccccc2)c1C(=O)c1ccccc1`, the result in the assay on Canis familiaris [1] (Canis lupus familiaris, Urine) was inactive.
In the case of `NC(=O)Nc1cc(C(=O)O)cc(NCc2ccccc2)c1Oc1ccccc1`, the Activity with Canis familiaris [1] turned out to be 13 mL/kg; with Canis familiaris [2], 0.33 milliequivalent/kg; with Canis familiaris [3], 1.7 milliequivalent/kg; with Canis familiaris [4], 1.3 milliequivalent/kg.
On to `CN(C)c1cc(C(=O)O)cc(OCc2ccccc2)c1C(=O)c1ccccc1`, for which the Activity result with Canis familiaris [1] (Canis lupus familiaris, Urine) was “inactive”; in the assay on Canis familiaris [2] (Canis lupus familiaris, Urine), “inactive”; with Canis familiaris [3] (Canis lupus familiaris, Urine), “inactive”; in the assay with Canis familiaris [4] (Canis lupus familiaris, Urine) it was “inactive”.
